Laboratory results reported in PubChem BioAssay (NCI).
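Interpolation was linear, between the two tested concentrations surrounding the appropriate level; five concentrations were tested over 48 hours in 96-well plates. GI50 = concentration required for 50% inhibition of growth. The concentration for full growth arrest is given as TGI.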

What was measured:
Experiment in all cases: NCI-60 cell line screen, 48 h
[1] = tested on: A498 renal
[2] = tested on: ACHN renal
[3] = tested on: CAKI-1 renal
[4] = tested on: COLO 205 colon
[5] = tested on: HCC-2998 colon
[6] = tested on: HCT-15 colon
[7] = tested on: LOX IMVI melanoma
[8] = tested on: SN12C renal
[9] = tested on: SW-620 colon
[10] = tested on: U251 CNS

Row | Structure (SMILES) | GI50 [1] | TGI [1] | GI50 [2] | TGI [2] | GI50 [3] | TGI [3] | GI50 [4] | TGI [4] | GI50 [5] | TGI [5] | GI50 [6] | TGI [6] | GI50 [7] | TGI [7] | GI50 [8] | TGI [8] | GI50 [9] | TGI [9] | GI50 [10] | TGI [10]
1 | O=C(c1ccccc1)C(Cl)C(Cl)c1ccccc1 (stereo not given) | 13.6 µM | 27.1 µM | 2.21 µM | 5.23 µM | 2.53 µM | 8.18 µM | 2.06 µM | 4.26 µM | 2 µM | 3.56 µM | 2.12 µM | 9.03 µM | 1.43 µM | 2.82 µM | 2.1 µM | 5.95 µM | 1.41 µM | 3.36 µM | 3.97 µM | 14.3 µM
2 | O=Cc1cccc2ccc3ccccc3c12 |  | 62.7 µM |  | 83.8 µM |  | 46.5 µM |  | 37.5 µM |  | 94 µM |  | > 100 µM |  | 45.9 µM |  | 88.5 µM |  | 74.3 µM |  | 58.7 µM
3 | O=C(/C=C/C12c3ccccc3C(c3ccccc31)C1C(=O)N(c3ccc(Cl)cc3)C(=O)C12)c1ccccn1 (stereo not given) | 0.277 µM | 0.792 µM | 0.234 µM | 0.56 µM | 1.07 µM | 4.95 µM | 0.49 µM | 1.13 µM | 0.244 µM | 0.658 µM | 0.206 µM | 0.66 µM | 0.177 µM | 0.358 µM | 0.32 µM | 1.57 µM | 0.3 µM | 0.994 µM | 0.256 µM | 0.74 µM
4 | CC1=NN(C(=O)Cc2ccccc2)C(=O)/C1=C\c1ccc([N+](=O)[O-])cc1 |  | > 100 µM |  | > 100 µM |  | > 100 µM |  | > 100 µM |  | > 100 µM |  | > 100 µM |  | > 100 µM |  | > 100 µM |  | > 100 µM |  | > 100 µM
5 | O=C(NC(=Nc1ccccc1)SCSC(=Nc1ccccc1)NC(=O)c1ccco1)c1ccco1 |  | 98.2 µM |  | > 100 µM |  | > 100 µM |  | > 100 µM |  | > 100 µM |  | > 100 µM |  | > 100 µM |  | > 100 µM |  | > 100 µM |  | > 100 µM
6 | O=C(Cc1ccccc1[N+](=O)[O-])C(CO)c1ccccc1[N+](=O)[O-] (stereo not given) |  | > 100 µM |  | > 100 µM |  | > 100 µM |  | > 100 µM |  | > 100 µM |  | > 100 µM |  | > 100 µM |  | > 100 µM |  | > 100 µM |  | > 100 µM
7 | C[C@@H](N)COc1ccc(-c2cnc3ccc(N[C@H](C)c4cccc(F)c4)nn23)cc1 | 1.52 µM | 5.58 µM | 2.15 µM | 6.35 µM | 2.87 µM | 11 µM | 1.1 µM | 2.96 µM | 2.01 µM | 4.97 µM | 2.32 µM | 10.1 µM | 1.42 µM | 2.72 µM | 2.02 µM | 10.4 µM | 1.55 µM | 3.44 µM | 1.59 µM | 4.18 µM
8 | C/C(CCn1[nH]c(=O)ccc1=O)=N\NC(=O)C(N)=O |  | > 100 µM |  | > 100 µM |  | > 100 µM |  | > 100 µM |  | > 100 µM |  | > 100 µM |  | > 100 µM |  | > 100 µM |  | > 100 µM |  | > 100 µM
9 | O=C(Cn1c(C(=O)c2ccc(Cl)cc2)nc(-c2ccc(Cl)cc2)c1-c1ccc(Cl)cc1)c1ccccc1 | > 100 µM | > 100 µM | > 100 µM | > 100 µM | > 100 µM | > 100 µM | > 100 µM | > 100 µM | > 100 µM | > 100 µM | > 100 µM | > 100 µM | > 100 µM | > 100 µM | > 100 µM | > 100 µM | > 100 µM | > 100 µM | > 100 µM | > 100 µM
10 | Fc1cc(F)c(F)c(S)c1F |  | 33.2 µM |  | > 100 µM |  | > 100 µM |  | > 100 µM |  | > 100 µM |  | > 100 µM |  | > 100 µM |  | 43.8 µM |  | > 100 µM |  | > 100 µM
11 | CC(=O)c1ccccc1NC(=O)C(=O)C(C(=O)c1ccc2ccccc2c1)C1OC(=O)c2ccccc21 (stereo not given) |  | 43.9 µM |  | > 100 µM |  | 48.1 µM |  | 30.2 µM |  | 18.3 µM |  | 40.1 µM |  | 26.4 µM |  | 37.9 µM |  | 40.6 µM |  | 40.7 µM
12 | COc1ccc(Nc2nc3cc(C(F)(F)F)ccc3nc2-c2ccccc2)cc1OC |  | > 100 µM |  | > 100 µM |  | 68.8 µM |  | > 100 µM |  | > 100 µM |  | > 100 µM |  | > 100 µM |  | > 100 µM |  | > 100 µM |  | > 100 µM
13 | O=[N+]([O-])c1ccc(/C=C/c2nc3ccc(Cl)cc3[nH]2)cc1 | 13.9 µM | 44.2 µM | 17.8 µM | 50.9 µM | 34.6 µM | 91 µM | > 100 µM | > 100 µM | 19.5 µM | 88.1 µM | 11.7 µM | > 100 µM | 27.2 µM | > 100 µM | 24 µM | 91 µM | 28.7 µM | > 100 µM | 16.3 µM | 35.3 µM
14 | Oc1cc(N2CC2)c(O)cc1N1CC1 | 0.581 µM | 2.55 µM | 0.219 µM | 0.59 µM | 0.086 µM | 0.332 µM | 1.02 µM | 2.21 µM | 1.49 µM | 2.98 µM | 0.727 µM | 10.4 µM | 0.322 µM | 2.42 µM | 0.586 µM | 5.07 µM | 0.372 µM | 7.37 µM | 0.577 µM | 10.7 µM
15 | CC(C)OP(=S)(NC(=S)c1ccccc1)OC(C)C |  | > 100 µM |  | > 100 µM |  | > 100 µM |  | > 100 µM |  | > 100 µM |  | > 100 µM |  | > 100 µM |  | > 100 µM |  | > 100 µM |  | > 100 µM
16 | CN1CCN(Cc2ccc(NC(=O)c3cncc(C#Cc4c(N)ncc5ccc(C#N)cc45)c3)cc2C(F)(F)F)CC1 | 1.07 µM | 6.35 µM | 0.717 µM | 1.39 µM | 0.943 µM | 1.93 µM | 0.121 µM | 50 µM | 1.72 µM | 5.03 µM | 0.827 µM | 1.72 µM | 0.29 µM | 1.07 µM | 2.97 µM | 7.35 µM | 0.696 µM | 1.53 µM | 0.864 µM | 1.67 µM
